Measurements taken from paper PMC5884652, “New antimicrobial peptide kills drug-resistant pathogens without detectable resistance” (Oncotarget, 2018).
Converted amounts (≈) assume the structure as drawn.

Assays:
P. aeruginosa ATCC 15692 = assay type: cell-based, Pseudomonas aeruginosa; settings: pH (I or II) not given; 10 mM sodium phosphate buffer, 10% LB; 37° C, 24 h; mean of 3 experiments
From the text: The method for peptide synthesis has been described in detail previously. […] Bacillus subtilis KCTC 1998 (LB media), Salmonella typhimurium KCTC 1926 (NB media), and Proteus vulgaris KCTC 2433 (NB media) were obtained from the Korean Collection for Type Cultures (Jeollabuk-do, Korea). E. coli CCARM 1238 was received from the Culture Collection of Antibiotic Resistant Microbes at Seoul Women’s University, Korea. Drug-resistant P. aeruginosa 3543, 3904, 3547, and 4007 and S. aureus 3126, 0027, 5157, 1635, 4761, 5159, 3359, 2122, 1630, 1870, 3511, 5156, and 3518 were resistant strains isolated from patients with otitis media in a Chonnam National University’s hospital.
The antibacterial activities of AMPs (melittin, clavaspirin, and its analogs) and conventional antibiotic drugs (erythromycin, gentamicin, ampicillin, and piperacidin) were determined using microdilution assays. […] Thereafter, 2× serial dilutions of each peptide (0.25–128 μM) or antibiotic (0.25–256 μM) were added to sterile 96-well plates, and aliquots of cell suspension (5 × 10^5 colony forming units (cfu)/mL) were seeded into each well. The samples were then incubated at 37° C for 24 h. At the end of the incubation, the minimum inhibitory concentrations (MICs) of the peptides were determined using a VERSA Max microplate reader (Molecular Devices Co., Sunnyvale, CA, USA) at a wavelength of 600 nm. […] MIC values were calculated as the mean of 3 independent experiments conducted in triplicate.

[1] = system: Bacillus subtilis KCTC 1998; assay type: cell-based; settings: pH (I or II) not given; 10 mM sodium phosphate buffer, 10% LB; 37° C, 24 h; mean of 3 experiments
From the text: (§1) The method for peptide synthesis has been described in detail previously. E. coli ATCC 25922 (LB media), P. aeruginosa ATCC 15692 (NB+0.5% NaCl media), Listeria monocytogenes ATCC 3710 (LB media), Staphylococcus epidermidis ATCC 12228 (LB media), and S. aureus ATCC 29213 (TSB media) were obtained from the American Type Culture Collection (Manassas, VA, USA). Bacillus subtilis KCTC 1998 (LB media), Salmonella typhimurium KCTC 1926 (NB media), and Proteus vulgaris KCTC 2433 (NB media) were obtained from the Korean Collection for Type Cultures (Jeollabuk-do, Korea). E. coli CCARM 1238 was received from the Culture Collection of Antibiotic Resistant Microbes at Seoul Women’s University, Korea. Drug-resistant P. aeruginosa 3543, 3904, 3547, and 4007 and S. aureus 3126, 0027, 5157, 1635, 4761, 5159, 3359, 2122, 1630, 1870, 3511, 5156, and 3518 were resistant strains isolated from patients with otitis media in a Chonnam National University’s hospital.
(§2) The antibacterial activities of AMPs (melittin, clavaspirin, and its analogs) and conventional antibiotic drugs (erythromycin, gentamicin, ampicillin, and piperacidin) were determined using microdilution assays. Bacterial cells were cultured at 37° C in appropriate culture media at pH 5.5 or pH 7.4 until collection during the mid-log phase and suspended in 10 mM sodium phosphate buffer (pH 5.5 or pH 7.4) supplemented with 10% culture medium. Thereafter, 2× serial dilutions of each peptide (0.25–128 μM) or antibiotic (0.25–256 μM) were added to sterile 96-well plates, and aliquots of cell suspension (5 × 10^5 colony forming units (cfu)/mL) were seeded into each well. The samples were then incubated at 37° C for 24 h. At the end of the incubation, the minimum inhibitory concentrations (MICs) of the peptides were determined using a VERSA Max microplate reader (Molecular Devices Co., Sunnyvale, CA, USA) at a wavelength of 600 nm. […] MIC values were calculated as the mean of 3 independent experiments conducted in triplicate.

[2] = system: Listeria monocytogenes ATCC 3710; assay type: cell-based; settings: pH (I or II) not given; 10 mM sodium phosphate buffer, 10% LB; 37° C, 24 h; mean of 3 experiments
From the text: as §1, §2

[3] = system: Staphylococcus epidermidis ATCC 12228; assay type: cell-based; settings: pH (I or II) not given; 10 mM sodium phosphate buffer, 10% LB; 37° C, 24 h; mean of 3 experiments
From the text: as §1, §2

[4] = system: Proteus vulgaris KCTC 2433; assay type: cell-based; settings: pH (I or II) not given; 10 mM sodium phosphate buffer, 10% LB; 37° C, 24 h; mean of 3 experiments
From the text: as §1, with “Bacillus subtilis KCTC 1998 (LB media), Salmonella typhimurium KCTC 1926 (NB media), and Proteus vulgaris KCTC 2433 (NB media) were obtained from the Korean Collection for Type Cultures (Jeollabuk-do, Korea).” left out
as §2

[5] = system: Salmonella typhimurium KCTC 1926; assay type: cell-based; settings: pH (I or II) not given; 10 mM sodium phosphate buffer, 10% LB; 37° C, 24 h; mean of 3 experiments
From the text: as §1, with “Bacillus subtilis KCTC 1998 (LB media), Salmonella typhimurium KCTC 1926 (NB media), and Proteus vulgaris KCTC 2433 (NB media) were obtained from the Korean Collection for Type Cultures (Jeollabuk-do, Korea).” left out
as §2

E. coli CCARM1238 = experiment: microbe, parasite or virus in culture; assay type: cell-based, Escherichia coli; settings: pH (I or II) not given, 10 mM sodium phosphate buffer, 10% LB, 37° C, 24 h, mean of 3 experiments
From the text: as §1, §2

P. aeruginosa 3543 = experiment: microbe, parasite or virus in culture; assay type: cell-based, Pseudomonas aeruginosa; settings: pH (I or II) not given, 10 mM sodium phosphate buffer, 10% LB, 37° C, 24 h, mean of 3 experiments
From the text: as §1, §2

P. aeruginosa 3547 = experiment: microbe, parasite or virus in culture; assay type: cell-based, Pseudomonas aeruginosa; settings: pH (I or II) not given, 10 mM sodium phosphate buffer, 10% LB, 37° C, 24 h, mean of 3 experiments
From the text: as §1, §2

P. aeruginosa 3904 = experiment: microbe, parasite or virus in culture; assay type: cell-based, Pseudomonas aeruginosa; settings: pH (I or II) not given, 10 mM sodium phosphate buffer, 10% LB, 37° C, 24 h, mean of 3 experiments
From the text: as §1, §2

P. aeruginosa 4007 = experiment: microbe, parasite or virus in culture; assay type: cell-based, Pseudomonas aeruginosa; settings: pH (I or II) not given, 10 mM sodium phosphate buffer, 10% LB, 37° C, 24 h, mean of 3 experiments
From the text: as §1, §2

S. aureus 0027 = experiment: microbe, parasite or virus in culture; assay type: cell-based, Staphylococcus aureus; settings: pH (I or II) not given; 10 mM sodium phosphate buffer, 10% LB; 37° C, 24 h; mean of 3 experiments
From the text: as §1, §2

S. aureus 1630 = experiment: microbe, parasite or virus in culture; assay type: cell-based, Staphylococcus aureus; settings: pH (I or II) not given; 10 mM sodium phosphate buffer, 10% LB; 37° C, 24 h; mean of 3 experiments
From the text: as §1, §2

S. aureus 1635 = experiment: microbe, parasite or virus in culture; assay type: cell-based, Staphylococcus aureus; settings: pH (I or II) not given; 10 mM sodium phosphate buffer, 10% LB; 37° C, 24 h; mean of 3 experiments
From the text: as §1, §2

S. aureus 1870 = experiment: microbe, parasite or virus in culture; assay type: cell-based, Staphylococcus aureus; settings: pH (I or II) not given; 10 mM sodium phosphate buffer, 10% LB; 37° C, 24 h; mean of 3 experiments
From the text: as §1, §2

S. aureus 2122 = experiment: microbe, parasite or virus in culture; assay type: cell-based, Staphylococcus aureus; settings: pH (I or II) not given; 10 mM sodium phosphate buffer, 10% LB; 37° C, 24 h; mean of 3 experiments
From the text: as §1, §2

S. aureus 3126 = experiment: microbe, parasite or virus in culture; assay type: cell-based, Staphylococcus aureus; settings: pH (I or II) not given; 10 mM sodium phosphate buffer, 10% LB; 37° C, 24 h; mean of 3 experiments
From the text: as §1, §2

S. aureus 3359 = experiment: microbe, parasite or virus in culture; assay type: cell-based, Staphylococcus aureus; settings: pH (I or II) not given; 10 mM sodium phosphate buffer, 10% LB; 37° C, 24 h; mean of 3 experiments
From the text: as §1, §2

S. aureus 3511 = experiment: microbe, parasite or virus in culture; assay type: cell-based, Staphylococcus aureus; settings: pH (I or II) not given; 10 mM sodium phosphate buffer, 10% LB; 37° C, 24 h; mean of 3 experiments
From the text: as §1, §2

S. aureus 3518 = experiment: microbe, parasite or virus in culture; assay type: cell-based, Staphylococcus aureus; settings: pH (I or II) not given; 10 mM sodium phosphate buffer, 10% LB; 37° C, 24 h; mean of 3 experiments
From the text: as §1, §2

S. aureus 4761 = experiment: microbe, parasite or virus in culture; assay type: cell-based, Staphylococcus aureus; settings: pH (I or II) not given; 10 mM sodium phosphate buffer, 10% LB; 37° C, 24 h; mean of 3 experiments
From the text: as §1, §2

S. aureus 5156 = experiment: microbe, parasite or virus in culture; assay type: cell-based, Staphylococcus aureus; settings: pH (I or II) not given; 10 mM sodium phosphate buffer, 10% LB; 37° C, 24 h; mean of 3 experiments
From the text: as §1, §2

S. aureus 5157 = experiment: microbe, parasite or virus in culture; assay type: cell-based, Staphylococcus aureus; settings: pH (I or II) not given; 10 mM sodium phosphate buffer, 10% LB; 37° C, 24 h; mean of 3 experiments
From the text: as §1, §2

S. aureus 5159 = experiment: microbe, parasite or virus in culture; assay type: cell-based, Staphylococcus aureus; settings: pH (I or II) not given; 10 mM sodium phosphate buffer, 10% LB; 37° C, 24 h; mean of 3 experiments
From the text: as §1, §2

For `CC[C@H](C)[C@H](NC(=O)CN)C(=O)NCC(=O)N[C@@H](C)C(=O)N[C@H](C(=O)N[C@@H](CC(C)C)C(=O)N[C@@H](CCCCN)C(=O)N[C@H](C(=O)N[C@@H](CC(C)C)C(=O)N[C@H](C(=O)N[C@H](C(=O)NCC(=O)N[C@@H](CC(C)C)C(=O)N1CCC[C@H]1C(=O)N[C@@H](C)C(=O)N[C@@H](CC(C)C)C(=O)N[C@H](C(=O)N[C@@H](CO)C(=O)N[C@@H](Cc1c[nH]c2ccccc12)C(=O)N[C@H](C(=O)N[C@@H](CCCCN)C(=O)N[C@@H](CCCNC(=N)N)C(=O)N[C@@H](CCCCN)C(=O)N[C@@H](CCCNC(=N)N)C(=O)N[C@@H](CCC(N)=O)C(=O)N[C@@H](CCC(N)=O)C(N)=O)[C@@H](C)CC)[C@@H](C)CC)[C@@H](C)O)[C@@H](C)O)C(C)C)C(C)C` [Melittin], the “MIC, P. aeruginosa” value (P. aeruginosa ATCC 15692) was 2 µM (≈ 5.69 µg/mL), the “MIC, B. subtilis” value [1] was 2 µM (≈ 5.69 µg/mL) and the “MIC, L. monocytogenes” value [2] was 2 µM (≈ 5.69 µg/mL). For the same molecule, the “MIC, S. epidermidis” value [3] was 2 µM (≈ 5.69 µg/mL), the “MIC, P. vulgaris” value [4] was 2 µM (≈ 5.69 µg/mL) and the “MIC, S. typhimurium” value [5] was 2 µM (≈ 5.69 µg/mL). It also gave an MIC (E. coli CCARM1238) of 2 µM (≈ 5.69 µg/mL), an MIC (P. aeruginosa 3543) of 2 µM (≈ 5.69 µg/mL) and an MIC (P. aeruginosa 3547) of 2 µM (≈ 5.69 µg/mL). The MIC (P. aeruginosa 3904) was 2 µM (≈ 5.69 µg/mL), the MIC (P. aeruginosa 4007) was 2 µM (≈ 5.69 µg/mL) and the MIC (S. aureus 0027) was 2 µM (≈ 5.69 µg/mL). For the same molecule, the MIC (S. aureus 1630) was 4 µM (≈ 11.4 µg/mL), the MIC (S. aureus 1635) was 2 µM (≈ 5.69 µg/mL) and the MIC (S. aureus 1870) was 4 µM (≈ 11.4 µg/mL). The MIC (S. aureus 2122) was 4 µM (≈ 11.4 µg/mL), the MIC (S. aureus 3126) was 2 µM (≈ 5.69 µg/mL) and the MIC (S. aureus 3359) was 4 µM (≈ 11.4 µg/mL). The MIC (S. aureus 3511) was 4 µM (≈ 11.4 µg/mL), the MIC (S. aureus 3518) was 4 µM (≈ 11.4 µg/mL) and the MIC (S. aureus 4761) was 4 µM (≈ 11.4 µg/mL). It also gave an MIC (S. aureus 5156) of 4 µM (≈ 11.4 µg/mL), an MIC (S. aureus 5157) of 2 µM (≈ 5.69 µg/mL) and an MIC (S. aureus 5159) of 8 µM (≈ 22.8 µg/mL).

Work on `CC1(C)S[C@@H]2[C@H](NC(=O)[C@H](N)c3ccccc3)C(=O)N2[C@H]1C(=O)O` [ampicillin] yielded an MIC (E. coli CCARM1238; Escherichia coli, CCARM1238) greater than 800 µM, an MIC (P. aeruginosa 3543; Pseudomonas aeruginosa, 3543) greater than 800 µM and an MIC (P. aeruginosa 3547; Pseudomonas aeruginosa, 3547) of 400 µM (≈ 140 µg/mL). The MIC (P. aeruginosa 3904; Pseudomonas aeruginosa, 3904) was greater than 800 µM and the MIC (P. aeruginosa 4007; Pseudomonas aeruginosa, 4007) was greater than 800 µM.
